This note sets out measurements from patent US20230416205A1, “COMPOUNDS, COMPOSITIONS, AND METHODS” (Denali Therapeutics Inc, priority 2020, published 2023).

Read-outs that look alike come from different tables or passages of the source. Bounds are passed on as bounds.

The subject of this experiment is NLRP3. Kind of experiment: IL-1β secretion assay in PMA-differentiated, LPS/nigericin-stimulated THP-1 cells (384-well, ELISA read-out). The class given is cell-based, human. The procedure, abridged:
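Secreted IL-1β quantified by capture ELISA from supernatants of PMA-differentiated THP-1 cells (30K per well). Sequence: LPS 25 ng/mL priming 2 h, compound 1 h, nigericin 2 h; dose-responses normalized between high (LPS plus 5 μM nigericin) and low (LPS alone) controls.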

[1] abbreviates: Homo sapiens, THP-1, Table 4, IL-1β secretion, LPS/nigericin-stimulated THP-1 cells, read-out: IC50.
The mark [2] stands for this setting: Homo sapiens, THP-1, IL-1β secretion, PMA-differentiated THP-1 cells, LPS then nigericin stimulation, ELISA read at 450 nm, read-out: Activity.
[3] abbreviates: IL-1β secretion, PMA-differentiated THP-1 cells, LPS then nigericin stimulation, ELISA read at 450 nm, read-out: Activity.
Where [4] appears, read: Table 4, IL-1β secretion, LPS/nigericin-stimulated THP-1 cells, read-out: IC50.

As to `O=C(CN1CC2(CC2)c2cc(Br)ccc2C1=O)Nc1ncc(N2CCCC2)cn1` [Example 364, 2-(6-bromo-1-oxospiro[3H-isoquinoline-4,1′-cyclopropane]-2-yl)-N-(5-pyrrolidin-1-ylpyrimidin-2-yl)acetamide], under setting [1], the IC50 was found to be 2.56 µM.
Take `O=C(CN1CC2(CC2)c2cc(Br)ccc2C1=O)Nc1ncc(C2CC2)cn1` [Example 194, 2-(6-bromo-1-oxospiro[3H-isoquinoline-4,1′-cyclopropane]-2-yl)-N-(5-cyclopropylpyrimidin-2-yl)acetamide]: the IC50 was less than 10 µM under setting [2] and 0.39 µM under setting [1].
As to `O=C(CN1CC2(CC2)c2cc(Br)ccc2C1=O)Nc1ncn(CC(F)(F)F)n1` [Example 425, 2-(6-bromo-1-oxospiro[3H-isoquinoline-4,1′-cyclopropane]-2-yl)-N-[1-(2,2,2-trifluoroethyl)-1,2,4-triazol-3-yl]acetamide], under setting [1], the IC50 turned out to be 2.85 µM.
Take `O=C(CN1CC2(CC2)c2cc(Br)ccc2C1=O)Nc1ncn(-c2ccccc2)n1` [Example 413, 2-(6-bromo-1-oxospiro[3H-isoquinoline-4,1′-cyclopropane]-2-yl)-N-(1-phenyl-1,2,4-triazol-3-yl)acetamide]: the IC50 under setting [1] turned out to be 2.02 µM.
Still for that read-out and setting: under `CC(F)c1ccc2c(c1)C1(CC1)CN(CC(=O)Nc1ncc(F)cn1)C2=O` (stereo not drawn) [Example 312, 2-[6-(1-fluoroethyl)-1-oxospiro[3H-isoquinoline-4,1′-cyclopropane]-2-yl]-N-(5-fluoropyrimidin-2-yl)acetamide] stands 1.02 µM.
Take `O=C(CN1CC2(CC2)c2cc(OC(F)F)ccc2C1=O)Nc1ncccn1` [Example 33, N-(pyrimidin-2-yl)-2-[6-(difluoromethoxy)-1-oxospiro[3H-isoquinoline-4,1′-cyclopropane]-2-yl]acetamide]: the IC50 is less than 10 µM under setting [2] and 1.28 µM under setting [1].
With `CC1(C)CN=C(NC(=O)CN2CC3(CC3)c3cc(Br)ccc3C2=O)O1` [Example 353, 2-(6-bromo-1-oxospiro[3H-isoquinoline-4,1′-cyclopropane]-2-yl)-N-(5,5-dimethyl-4H-1,3-oxazol-2-yl)acetamide], under setting [1], the IC50 stood at 5.42 µM.
As for `Cn1cc(N2CCCC(NC(=O)CN3CC4(CC4)c4cc(Br)ccc4C3=O)C2)cn1` (stereo not drawn) [Example 417, 2-(6-bromo-1-oxospiro[3H-isoquinoline-4,1′-cyclopropane]-2-yl)-N-[1-(1-methylpyrazol-4-yl)piperidin-3-yl]acetamide], the IC50 under setting [1] stood at 11.7 µM.
Take `O=C(CN1CC2(CC2)c2cc(C(F)(F)F)c(F)cc2C1=O)Nc1ncc(F)cn1` [Example 84, 2-[7-fluoro-1-oxo-6-(trifluoromethyl)spiro[3H-isoquinoline-4,1′-cyclopropane]-2-yl]-N-(5-fluoropyrimidin-2-yl)acetamide]: the IC50 was less than 10 µM under setting [2] and 5.98 µM under setting [1].
Turning to `O=C(CN1CC2(CC2)c2c(ccc(Br)c2F)C1=O)Nc1ncc(F)cn1` [Example 41, 2-(6-bromo-5-fluoro-1-oxo-spiro[3H-isoquinoline-4,1′-cyclopropane]-2-yl)-N-(5-fluoropyrimidin-2-yl)acetamide], the IC50 under setting [2] is less than 10 µM and the IC50 under setting [1] was 0.068 µM.
For `O=C(CN1CC2(CC2)c2cc(Br)ccc2C1=O)Nc1ccncc1F` [Example 11] the same measures were less than 10 µM and 0.531 µM.
As for `O=C(CN1C[C@@]2(C[C@@H]2F)c2cc(C(F)(F)F)ccc2C1=O)Nc1ncc(C(F)(F)F)cn1` (single isomer, unassigned) [Example 243, 2-[(2′s,4r)-2′-fluoro-1-oxo-6-(trifluoromethyl)spiro[3H-isoquinoline-4,1′-cyclopropane]-2-yl]-N-[5-(trifluoromethyl)pyrimidin-2-yl]acetamide], the IC50 reads like this: under setting [3], less than 10 µM; under setting [4], 0.095 µM.
With `O=C(CN1CC2(CC2)c2cc(Cl)ccc2C1=O)Nc1ncc(F)cn1` [Example 94, 2-(6-chloro-1-oxospiro[3H-isoquinoline-4,1′-cyclopropane]-2-yl)-N-(5-fluoropyrimidin-2-yl)acetamide], the IC50 reads like this: under setting [2], less than 10 µM; under setting [1], 0.369 µM.
Regarding `O=C(CN1CC2(CC2)c2cc(Br)ccc2C1=O)NC1(c2ccccc2)CC1` [Example 161, 2-(6-bromo-1-oxospiro[3H-isoquinoline-4,1′-cyclopropane]-2-yl)-N-(1-phenylcyclopropyl)acetamide], the IC50 under setting [2] was less than 10 µM and the IC50 under setting [1] amounted to 6.12 µM.
With `O=C(CN1C[C@@]2(C[C@@H]2C(F)(F)F)c2cc(Br)ccc2C1=O)Nc1ncc(F)cn1` [Example 86, 2-[(2′s,4r)-6-bromo-1-oxo-2′-(trifluoromethyl)spiro[3H-isoquinoline-4,1′-cyclopropane]-2-yl]-N-(5-fluoropyrimidin-2-yl)acetamide], the IC50 reads like this: under setting [2], less than 10 µM; under setting [1], 2.81 µM.
`O=C(CN1CC2(CC2)c2cc(Br)ccc2C1=O)Nc1ncc(F)cc1F` [Example 38, 2-(6-bromo-1-oxo-spiro[3H-isoquinoline-4,1′-cyclopropane]-2-yl)-N-(3,5-difluoro-2-pyridyl)acetamide]: the IC50 is less than 10 µM under setting [3] and 0.449 µM under setting [4].
Regarding `O=C(CN1CC2(CC2)c2cc(Br)ccc2C1=O)Nc1ccn2nccc2n1` [Example 175, 2-(6-bromo-1-oxospiro[3H-isoquinoline-4,1′-cyclopropane]-2-yl)-N-pyrazolo[1,5-a]pyrimidin-5-ylacetamide], the IC50 runs as follows: under setting [2], less than 10 µM; under setting [1], 0.672 µM.
The matching figures for `O=C(CN1CC2(CC2)c2cc(Br)ccc2C1=O)NC12CCC(O)(CC1)CC2` [Example 57, 2-(6-bromo-1-oxo-spiro[3H-isoquinoline-4,1′-cyclopropane]-2-yl)-N-(4-hydroxy-1-bicyclo[2.2.2]octanyl)acetamide]: less than 10 µM and 5.92 µM.
Regarding `O=C(CN1CC2(CC2)c2c(ccc(Br)c2F)C1=O)Nc1ncccn1` [Example 39, 2-(6-bromo-5-fluoro-1-oxo-spiro[3H-isoquinoline-4,1′-cyclopropane]-2-yl)-N-(pyrimidin-2-yl)acetamide], the IC50 reads like this: under setting [2], less than 10 µM; under setting [1], 0.09 µM.
As for `COCCN1CCCC(NC(=O)CN2CC3(CC3)c3cc(Br)ccc3C2=O)C1` (stereo not drawn) [Example 25, 2-(6-bromo-1-oxo-spiro[3H-isoquinoline-4,1′-cyclopropane]-2-yl)-N-[1-(2-methoxyethyl)-3-piperidyl]acetamide], the IC50 is less than 10 µM under setting [2] and 3.57 µM under setting [1].
Take `Cc1cncc(NC(=O)CN2CC3(CC3)c3cc(Br)ccc3C2=O)n1` [Example 171, 2-(6-bromo-1-oxospiro[3H-isoquinoline-4,1′-cyclopropane]-2-yl)-N-(6-methylpyrazin-2-yl)acetamide]: the IC50 under setting [2] was in the range of 10 to 15 µM and the IC50 under setting [1] was 11 µM.
For the compound `O=C(CN1C[C@@]2(C[C@@H]2F)c2cc(C(F)(F)F)ccc2C1=O)Nc1ncc(F)cn1` (single isomer, unassigned) [Example 234, 2-[(2′s,4r)-2′-fluoro-1-oxo-6-(trifluoromethyl)spiro[3H-isoquinoline-4,1′-cyclopropane]-2-yl]-N-(5-fluoropyrimidin-2-yl)acetamide], the IC50 is, setting by setting: under setting [2], less than 10 µM; under setting [4], 0.078 µM.
With `COc1ccnc(NC(=O)CN2CC3(CC3)c3cc(Br)ccc3C2=O)n1` [Example 338, 2-(6-bromo-1-oxospiro[3H-isoquinoline-4,1′-cyclopropane]-2-yl)-N-(4-methoxypyrimidin-2-yl)acetamide], the IC50 under setting [1] is 1.58 µM.
For the compound `O=C(CN1CC2(CC2)c2cc(Br)ccc2C1=O)Nc1ncc(-n2cccn2)cn1` [Example 48, 2-(6-bromo-1-oxospiro[3H-isoquinoline-4,1′-cyclopropane]-2-yl)-N-(5-pyrazol-1-ylpyrimidin-2-yl)acetamide], the IC50 by setting is: under setting [2], less than 10 µM; under setting [1], 0.238 µM.
As for `O=C(CN1C[C@@]2(C[C@@H]2F)c2cc(Br)cc(F)c2C1=O)Nc1ncc(F)cn1` (mixture of isomers) [Example 285, 2-[(2′s,4r)-6-bromo-2′,8-difluoro-1-oxospiro[3H-isoquinoline-4,1′-cyclopropane]-2-yl]-N-(5-fluoropyrimidin-2-yl)acetamide], the IC50 was less than 10 µM under setting [2] and 0.165 µM under setting [1].
Turning to `Cc1nc(NC(=O)CN2CC3(CC3)c3cc(Br)ccc3C2=O)ncc1F` [Example 184, 2-(6-bromo-1-oxospiro[3H-isoquinoline-4,1′-cyclopropane]-2-yl)-N-(5-fluoro-4-methylpyrimidin-2-yl)acetamide], the IC50 is less than 10 µM under setting [2] and 0.651 µM under setting [1].
In the case of `CC(C)(O)C12CC(NC(=O)CN3CC4(CC4)c4cc(Br)ccc4C3=O)(C1)C2` [Example 49, 2-(6-bromo-1-oxo-spiro[3H-isoquinoline-4,1′-cyclopropane]-2-yl)-N-[3-(1-hydroxy-1-methyl-ethyl)-1-bicyclo[1.1.1]pentanyl]acetamide], the IC50 by setting is: under setting [2], less than 10 µM; under setting [1], 3.01 µM.
For `O=C(CN1CC2(CC2)c2cc(Br)ccc2C1=O)Nc1ncc(F)s1` [Example 163, 2-(6-bromo-1-oxospiro[3H-isoquinoline-4,1′-cyclopropane]-2-yl)-N-(5-fluoro-1,3-thiazol-2-yl)acetamide] the same measures were less than 10 µM and 6.66 µM.
On to `O=C(CN1CC2(CC2)c2cc(Br)ccc2C1=O)Nc1nc2cccnc2o1` [Example 211, 2-(6-bromo-1-oxo-spiro[3H-isoquinoline-4,1′-cyclopropane]-2-yl)-N-oxazolo[5,4-b]pyridin-2-yl-acetamide], for which the IC50 was less than 10 µM under setting [2] and 1.18 µM under setting [1].
